Key:
[1] = target: T1, hPPARgamma (Homo sapiens, UniProt P37231); assay: Gal4-hPPARgamma transactivation assay in COS-7 cells (luciferase); assay type: cell-based
T1 construct: Gal4-hPPARγ(LBD); Gal4 (fusion partner); expressed in transfected cells; host or cells: COS-7 (monkey kidney)
T1 sequence (P37231 238-503 limits assumed): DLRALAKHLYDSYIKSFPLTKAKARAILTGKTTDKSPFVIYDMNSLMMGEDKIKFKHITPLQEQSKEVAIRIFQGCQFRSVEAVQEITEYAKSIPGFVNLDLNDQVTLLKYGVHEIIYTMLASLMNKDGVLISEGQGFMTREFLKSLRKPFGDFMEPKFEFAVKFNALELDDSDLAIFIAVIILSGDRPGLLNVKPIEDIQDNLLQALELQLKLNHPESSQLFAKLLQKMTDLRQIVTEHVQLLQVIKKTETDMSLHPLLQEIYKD
Procedure, shortened: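 COS-7 cells transiently co-transfected with Gal4-hPPAR chimeras and a Gal4(RE)_TkpGL3 luciferase reporter (1/50 ratio) were seeded at 20,000 cells/well for 4 h, then treated in 2% lipid-free synthetic serum medium (0.1% DMSO). EC50 and Hill slope came from fitted luciferase curves. Emax is relative to fenofibrate 100 μM (α), rosiglitazone 10 μM (γ) or GW501516 1 μM (δ).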

[2] = test system: brain amyloid-beta levels; assay: Alzheimer's disease model (APPPS1 mice): brain amyloid-beta levels by ELISA; assay type: in vivo, mouse; conditions: 60 days, +/- standard deviation
[3] = Compound pharmacokinetics study in mice (plasma and brain); assay type: in vivo; conditions: mouse; for AUC(0-t): iv (2 mpk) or PO (10 mpk), followed for 24 hours
Description: Compound Pharmacokinetics Study in Mice
The compound was administered to six male swiss mice (five weeks old) by the PO route and six male mice by the iv route (caudal vein). […] For the PO route (10 mg/kg), the compound was dissolved in a solution of 0.5% Methyl cellulose (ref sigma M0262) and 0.3% Polysorbate 80 (Tween 80—ref sigma P8074). During the iv administration and blood sampling animals were anesthetized with Isofluorane® (from Belamont) using an anaesthetic system (Minerve). At the precise time-point, blood samplings were done at the retro-orbital sinus, with a capillary tube. The blood volume collected per each time-point was 0.2-0.3 ml. Blood samples were collected into tubes containing both lithium and heparin and then centrifuged at 2500 rpm at 4° C. Plasma was removed and transferred into polypropylene tubes. Individual plasma aliquots were frozen at −20° C. (±5° C.) and stored until analysis.
After blood sampling, the animals were perfused with 7 ml cold saline solution directly into the heart to extract the maximum of blood from the brain vasculature. Animals were then beheaded and the brain tissue collected and frozen at −20° C. (±5° C.) and stored until analysis. Prior to the sample analysis, the suitability of the analytical method to detect the compounds to be evaluated was performed as described below. The molecular and daughter ions were selected for each molecule by direct infusion into the MS-MS system. For those plasma samples which are mixed prior to analysis, precaution was taken to avoid mixing common moieties both with regards to the parent compounds as well as potential metabolites. According to the expected sensitivity, 8 point calibration standards (1, 5, 10, 50, 100, 500, 1000 and 5000 ng/mL) were run using standard conditions which consist to LC/MS/MS system with C18 column after precipitation of the plasma proteins with acetonitrile before the start of the analytical test. Calibration standards were performed in each matrix (plasma and brain). Prior to analysis, 100 μL of each plasma sample was mixed with 300 μL acetonitrile. Following protein precipitation, samples were vortex mixed for 30 seconds, centrifuged 5 min at 15000 tr/min and the supernatant was removed. Analyses were performed using LC/MS/MS determination according to previous analytical test results. Brains were homogenized with a potter using water (1/1, w/w). 100 μl of the homogenate was mixed with 100 μl of acetonitrile. The mixture was mixed (Vortex) for 30 seconds, then centrifuged during 5 min at 15000 tr/min. Brain homogenate supernatants were directly measured by LC/MS/MS after centrifugation. LC-MS/MS system was used with a C18 Kromasil column and API4000® from Applied Biosystem or Quattro® from Waters as mass spectrometers.

Structure (SMILES): COC(c1ccc(OC(F)(F)F)cc1)C1CC1c1cc(C)c(OC(C)(C)C(=O)O)c(C)c1 (single isomer, unassigned) [Cpd 14-1-2, 2-(4-(2-(methoxy(4-(trifluoromethoxy)phenyl)methyl)cyclopropyl)-2,6-dimethylphenoxy)-2-methylpropanoic acid]
- EC50 ([1]; Gal4-hPPARγ(LBD) transactivation): 11 nM
- Gal4-hPPARγ(LBD) TOP (% ref) ([1]; maximal relative activation vs reference, listed as cpd 14-1-2): 82 % ref
- amyloid-beta peptide Aβ 1-38, mean reduction from untreated APPPS1 mice ([2]; 1 mpk per day): 76 % +/− 16 % (**)
- amyloid-beta peptide Aβ 1-40, mean reduction from untreated APPPS1 mice ([2]; 1 mpk per day): 55 % +/− 17 % (**)
- amyloid-beta peptide Aβ 1-42, mean reduction from untreated APPPS1 mice ([2]; 1 mpk per day): 56 % +/− 19 % (**)
- amyloid-beta peptide Aβ 1-38, mean reduction from untreated APPPS1 mice ([2]; 10 mpk per day): 97 % +/− 3 % (**)
- amyloid-beta peptide Aβ 1-40, mean reduction from untreated APPPS1 mice ([2]; 10 mpk per day): 72 % +/− 14 % (**)
- amyloid-beta peptide Aβ 1-42, mean reduction from untreated APPPS1 mice ([2]; 10 mpk per day): 74 % +/− 14 % (**)
- bioavailability ([3]; male, Swiss, plasma, PO (10 mpk) versus iv (2 mpk), read-out: F % (bioavailability)): 93%
- AUC(0-t) ([3]; male, Swiss, brain): 26700 ng·h/mL
- Kp ([3]; male, Swiss, from AUC comparison brain to plasma, read-out: part of the administered compound that penetrates into the brain): 0.37
- AUC(0-t) ([3]; male, Swiss, plasma): 71800 ng·h/mL
- brain/plasma ratio ([3]; AUC comparison (brain exposure to plasma exposure ratio)): 0.37
- F % (bioavailability) ([3]; PO (10 mpk) versus iv (2 mpk)): 92.9%
